From ChEMBL document CHEMBL3392926, “Antiprotozoal Activity Profiling of Approved Drugs: A Starting Point toward Drug Repositioning”
Several values for one entry are separate records, joined by “and”; a condition that tells them apart may be missing. Identical values can stand only once.

What was measured:
[1] = test system: Trypanosoma brucei rhodesiense; test: microbe, parasite or virus in culture; format: functional, organism-based, STIB 900
Description: DNDI: HAT in Vitro, 72 hour

Leishmania donovani [2] = test: microbe, parasite or virus in culture; format: functional, organism-based, MHOM/ET/67/L82
Description: DNDI: Leish (axenic) in Vitro, 72 hour

Plasmodium falciparum = test: microbe, parasite or virus in culture; format: functional, organism-based, K1
Description: DNDI: Malaria in Vitro, 72 hour

Trypanosoma cruzi = test: microbe, parasite or virus in culture; format: functional, organism-based, Tulahuen C4 (LacZ); conditions: Trypanosoma cruzi, Tulahuen C4 (LacZ), 96 h
Description: DNDI: Chagas in Vitro, 96 hour

Leishmania donovani [3] = test: microbe, parasite or virus in culture; format: functional, organism-based, MHOM/ET/67/L82; conditions: Leishmania donovani, MHOM/ET/67/L82, 96 h
Description: DNDI: Leish (macro) in Vitro, 96 hour

cells [4] = format: functional, cell-based; conditions: Mus musculus, NMRI, BalbC or CD1 mice, Macrophage, 96 h
Description: DNDI: Cytotoxicity in Vitro, 96 hour, in mouse macrophages (infected-amastigotes)

cells [5] = format: functional, cell-based; conditions: Rattus norvegicus, L6, 72 h
Description: DNDI: Cytotoxicity in Vitro, 72 hour, in rat skeletal myoblast cells

[6] = Trypanosoma brucei, STIB 900, 72 h
[7] = Leishmania donovani, MHOM/ET/67/L82, 72 h
[8] = Plasmodium falciparum, K1, 72 h

Compound	IC50 [1, 6] [µM]	IC50 (Leishmania donovani [2]; [7]) [µM]	IC50 (Plasmodium falciparum; [8]) [µM]	IC50 (Trypanosoma cruzi) [µM]	IC50 (Leishmania donovani [3]) [µM]	IC50 (cells [4]) [µM]	IC50 (cells [5]) [µM]	IC50 [1] [µM]	IC50 (Leishmania donovani [2]) [µM]	IC50 (Plasmodium falciparum)
C[C@H]1[C@@H](OC(=O)CCC(=O)O)O[C@@H]2O[C@]3(C)CC[C@H]4[C@H](C)CC[C@@H]1[C@@]24OO3	16.8	0.35	0.003	8.97	> 7.8	> 7.8	0.78	–	–	–
CO[C@H]1/C=C/O[C@@]2(C)Oc3c(C)c(O)c4c(O)c(c(/C=N/N5CCN(C)CC5)c(O)c4c3C2=O)NC(=O)/C(C)=C\C=C\[C@H](C)[C@H](O)[C@@H](C)[C@@H](O)[C@H](C)[C@H](OC(C)=O)[C@H]1C	16.7	1.53	0.1	> 109	> 36.5	> 36.5	75.2	–	–	–
CO[C@H]1/C=C/O[C@]2(C)Oc3c(C)c(O)c4c(O)c(c5c(nc6cc(C)ccn65)c4c3C2=O)NC(=O)/C(C)=C\C=C\[C@H](C)[C@H](O)[C@@H](C)[C@@H](O)[C@H](C)[C@H](OC(C)=O)[C@H]1C	17.1	15	0.92	40.2	> 38.2	> 38.2	88	–	–	–
CO[C@H]1/C=C/O[C@@]2(C)Oc3c(C)c(O)c4c(c3C2=O)C2=NC3(CCN(CC(C)C)CC3)NC2=C(NC(=O)/C(C)=C\C=C\[C@H](C)[C@H](O)[C@@H](C)[C@@H](O)[C@H](C)[C@H](OC(C)=O)[C@H]1C)C4=O	12.6	56.4	1.59	27.5	> 35.4	> 35.4	60.9	–	–	–
CC[C@@H]1OC(=O)[C@@H](C)[C@H](O[C@H]2C[C@@](C)(OC)[C@@H](O)[C@H](C)O2)[C@@H](C)[C@H](O[C@H]2O[C@@H](C)C[C@@H](N(C)C)[C@@H]2O)[C@@](C)(O)C[C@H](C)C(=O)[C@@H](C)[C@H](O)[C@@]1(C)O	72.1	> 133	9.91	114	> 39.9	> 39.9	92.2	–	–	–
CCC[C@@H]1C[C@@H](C(=O)N[C@H]([C@@H]2O[C@H](SC)[C@H](O)[C@@H](O)[C@H]2O)[C@@H](C)O)N(C)C1	> 221	> 221	7.08	> 221	> 73.8	> 73.8	> 221	–	–	–
COc1cc(C)c2c(Oc3cccc(C(F)(F)F)c3)c(OC)cc(N[C@H](C)CCCN)c2n1	1.42	17.9	0.27	6.11	> 2.16	6.47	5.52	–	–	–
CC(=O)[C@H]1CC[C@@H]2[C@@H]3CC[C@@H]4C[C@](C)(O)CC[C@]4(C)[C@H]3CC[C@@]12C	5.47	42.5	> 15	65	> 30.1	> 90.2	23.5	–	–	–
C[C@H]1c2cccc(O)c2C(O)=C2C(=O)[C@]3(O)C(=O)/C(=C(/N)O)C(=O)[C@@H](N(C)C)[C@@H]3[C@@H](O)[C@@H]21	63.7	24.1	4.48	39.1	> 22.5	67.5	14.5	–	–	–
O[C@@H](c1cc(C(F)(F)F)nc2c(C(F)(F)F)cccc12)[C@H]1CCCCN1 [(S,R)-MEFLOQUINE]	0.53	38.6	0.0024	4.48	2.41	7.23	3.25	–	–	–
COC(=O)N[C@H](C(=O)N[C@@H](Cc1ccccc1)[C@@H](O)CN(Cc1ccc(-c2ccccn2)cc1)NC(=O)[C@@H](NC(=O)OC)C(C)(C)C)C(C)(C)C [ATAZANAVIR]	12.7	24.1	7.95	33.3	> 37.5	> 37.5	46.5	–	–	–
c1ccc(-c2ccc(C(c3ccccc3)n3ccnc3)cc2)cc1 (stereo unspecified) [BIFONAZOLE]	26.8	5.48	3.18	0.003	> 32.2	> 32.2	39.3	–	–	–
CN(C)CCCN1c2ccccc2Sc2ccc(Cl)cc21 [CHLORPROMAZINE]	1.25	48.5	3.03	17.2	> 9.41	31.4	12.3	–	–	–
O=C(O)c1cn(C2CC2)c2cc(N3CCNCC3)c(F)cc2c1=O [CIPROFLOXACIN]	35.9	> 302	13.2	92	> 90.5	> 90.5	118	–	–	–
C#C[C@]1(O)CC[C@H]2[C@@H]3CCC4=Cc5oncc5C[C@]4(C)[C@H]3CC[C@@]21C [DANAZOL]	45.9	10.2	14.1	6.25	> 29.6	> 29.6	32	–	–	–
OCCN(CCO)c1nc(N2CCCCC2)c2nc(N(CCO)CCO)nc(N3CCCCC3)c2n1 [DIPYRIDAMOLE]	7.45	62	1.3	29.3	> 59.5	> 59.5	38.6	–	–	–

Compound	IC50 [1, 6] [µM]	IC50 (Leishmania donovani [2]; [7]) [µM]	IC50 (Plasmodium falciparum; [8]) [µM]	IC50 (Trypanosoma cruzi) [µM]	IC50 (Leishmania donovani [3]) [µM]	IC50 (cells [4]) [µM]	IC50 (cells [5]) [µM]	IC50 [1] [µM]	IC50 (Leishmania donovani [2]) [µM]	IC50 (Plasmodium falciparum)
COc1ccc(Cl)cc1C(=O)NCCc1ccc(S(=O)(=O)NC(=O)NC2CCCCC2)cc1 [GLYBURIDE]	87.7	9.8	38.3	93.9	> 60.7	> 60.7	116	–	–	–
COC1=CC(=O)C[C@@H](C)[C@]12Oc1c(Cl)c(OC)cc(OC)c1C2=O [GRISEOFULVIN]	40	87	75.1	87.3	> 85	> 85	20.5	–	–	–
NNC(=O)c1ccncc1 [ISONIAZID]	> 656	> 656	–	> 656	> 219	> 219	> 656	> 729	> 729	> 36.5 µM and 246 µM
CCC(C)n1ncn(-c2ccc(N3CCN(c4ccc(OCC5COC(Cn6cncn6)(c6ccc(Cl)cc6Cl)O5)cc4)CC3)cc2)c1=O (stereo unspecified) [ITRACONAZOLE]	8.53	2.42	1.37	0.004	> 1.42	4.25	1.11	–	–	–
Cc1cccc(C)c1OCC(=O)N[C@@H](Cc1ccccc1)[C@@H](O)C[C@H](Cc1ccccc1)NC(=O)[C@H](C(C)C)N1CCCNC1=O [LOPINAVIR]	10.8	11.8	1.92	15.4	> 47.7	> 47.7	18.9	–	–	–
CCN(CCCCOC(=O)c1ccc(OC)c(OC)c1)C(C)Cc1ccc(OC)cc1 (stereo unspecified) [MEBEVERINE]	54.2	> 210	1.74	3.89	54.9	> 69.8	70.8	–	–	–
CN(C)c1ccc(O)c2c1C[C@H]1C[C@H]3[C@H](N(C)C)C(O)=C(C(N)=O)C(=O)[C@@]3(O)C(O)=C1C2=O [MINOCYCLINE]	36.6	45.7	3.58	22.3	> 21.9	> 21.9	9.42	–	–	–
NC(=O)c1cccnc1 [NIACINAMIDE]	> 737	> 737	> 40.9	> 737	> 246	> 246	> 737	–	–	–
O=C(Nc1ccc([N+](=O)[O-])cc1Cl)c1cc(Cl)ccc1O [NICLOSAMIDE]	1.67	0.15	1.14	2.49	> 0.31	1.01	2.3	–	–	–
O=C(N/N=C/c1ccc([N+](=O)[O-])o1)c1ccc(O)cc1 [NIFUROXAZIDE]	0.03	2.83	7.82	0.23	> 10.9	36.2	12.3	–	–	–
CNCCC=C1c2ccccc2CCc2ccccc21 [NORTRIPTYLINE]	1.17	> 342	0.58	22.9	> 11.4	38	27.9	–	–	–
COc1ccc2[nH]c([S+]([O-])Cc3ncc(C)c(OC)c3C)nc2c1 (stereo unspecified) [OMEPRAZOLE]	51.8	90.9	13.2	68.3	> 86.9	> 86.9	126	–	–	–
Fc1ccc([C@@H]2CCNC[C@H]2COc2ccc3c(c2)OCO3)cc1 [PAROXETINE]	1.13	> 273	9.23	14.4	> 9.11	30.4	13.8	–	–	–
CN(C)CCCN1c2ccccc2Sc2ccccc21 [PROMAZINE]	2.16	> 316	0.49	49.1	> 35.2	> 35.2	30.1	–	–	–
CO[C@H]1/C=C/O[C@@]2(C)Oc3c(C)c(O)c4c(O)c(cc(O)c4c3C2=O)NC(=O)/C(C)=C\C=C\[C@H](C)[C@H](O)[C@@H](C)[C@@H](O)[C@@H](C)[C@H](OC(C)=O)[C@@H]1C [RIFAMYCIN]	0.99	1.5	0.55	50	> 13.9	41.6	15.7	–	–	–
CN(C/C=C/C#CC(C)(C)C)Cc1cccc2ccccc12 [TERBINAFINE]	95.2	23	7.72	40.9	69.5	> 91.5	47	–	–	–
